Experimental data from article PMC6751662, “Pharmacological and functional similarities of the human neuropeptide Y system in C. elegans challenges phylogenetic views on the FLP/NPR system” (Cell Communication and Signaling : CCS, 2019).

Assays:
Type in all cases: cell-based, C. elegans
[1] = target: T1, NPR-11 (Caenorhabditis elegans, UniProt Q18179); assay: IP accumulation assay, endogenous Gαq + mock, NPR-11; conditions: 1 h, HBSS + 20 mM LiCl, HEK293 receptor + empty vector, HTRF IP-One, mean of >=3 independent experiments
T1 construct: expressed in transfected cells; host or cells: HEK293, transient
T1 sequence (Q18179 1-402): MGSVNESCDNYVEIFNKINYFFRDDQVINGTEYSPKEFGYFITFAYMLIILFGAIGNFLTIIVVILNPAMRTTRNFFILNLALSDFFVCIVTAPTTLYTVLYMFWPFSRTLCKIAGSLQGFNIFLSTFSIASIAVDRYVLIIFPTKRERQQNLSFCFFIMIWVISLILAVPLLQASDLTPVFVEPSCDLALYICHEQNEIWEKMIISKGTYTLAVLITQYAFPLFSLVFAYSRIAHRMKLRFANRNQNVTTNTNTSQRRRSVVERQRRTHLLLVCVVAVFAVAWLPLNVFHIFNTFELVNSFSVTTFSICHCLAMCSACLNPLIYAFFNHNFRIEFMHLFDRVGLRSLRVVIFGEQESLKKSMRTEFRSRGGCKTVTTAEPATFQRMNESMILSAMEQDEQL
Experimental: (§1) For measuring IP accumulation, HEK293 cells grown to 70–80% confluency in 6-well plates were transiently co-transfected using Metafectene Pro (2.5 μl/μg DNA; Biontex) with plasmids containing receptor and/or mock (empty pcDNA3.1) (for endogenous Gq-coupling) using 4 μg total DNA in a ratio of 3:1 following the manufacturer’s instructions. For testing Gα16- and GαΔ6qi4myr-coupling, plasmids encoding the corresponding Gα protein were co-transfected instead of mock. Gα16 is naturally promiscuous and stimulates the phospholipase C (PLC) pathway leading to IP production, while the exchange of the C-terminal four amino acids of Gαq for the corresponding residues of Gαi1 in the chimeric GαΔ6qi4myr confers the ability to couple to Gi/o protein-preferring receptors but still stimulate PLC, thus specifically redirecting downstream cellular signaling. 16 h post transfection, the cells were seeded into white 384-well plates at a density of 20,000 cells/well. Media was removed 24 h later and the cells were incubated with the indicated concentration of peptides for 1 h in HBSS + 20 mM LiCl. IP accumulation was measured with the HTRF-based IP-One Gq kit (Cisbio) on a microplate reader (Tecan Spark).
(§2) For in vitro activation, data is presented as mean ± SEM of at least three independent experiments conducted in technical triplicate. […]

[2] = target: T2, NPR-1 (Caenorhabditis elegans, UniProt Q18534); assay: cAMP reporter gene assay, Gs (no forskolin), NPR-1; parameters: host or cells: HEK293; conditions: no forskolin, 4 h, transiently transfected HEK293, CRE-luciferase reporter, mean of >=3 independent experiments
T2 sequence (Q18534 1-457): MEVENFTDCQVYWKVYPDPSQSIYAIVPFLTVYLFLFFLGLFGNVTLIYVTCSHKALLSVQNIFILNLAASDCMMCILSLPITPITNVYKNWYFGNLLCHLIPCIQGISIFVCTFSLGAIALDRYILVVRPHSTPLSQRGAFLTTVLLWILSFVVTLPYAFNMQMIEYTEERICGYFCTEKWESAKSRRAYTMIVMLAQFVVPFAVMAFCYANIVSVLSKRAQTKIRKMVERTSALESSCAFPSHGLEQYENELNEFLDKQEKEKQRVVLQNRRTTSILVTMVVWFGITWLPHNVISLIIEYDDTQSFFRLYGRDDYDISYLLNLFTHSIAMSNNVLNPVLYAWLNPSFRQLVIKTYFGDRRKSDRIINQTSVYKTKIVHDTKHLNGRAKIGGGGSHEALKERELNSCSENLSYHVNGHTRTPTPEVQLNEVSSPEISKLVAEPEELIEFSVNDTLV
Experimental: (§3) Activation of Gs and Gi/o was assessed with a cAMP reporter gene assay. HEK293 cells grown to 70–80% confluency in 6-well plates were transiently co-transfected with vectors encoding the receptor and the cAMP reporter gene plasmid pGL4.29 [luc2P/CRE/Hygro] (Promega; 4 μg total, 1:1 ratio) using Metafectene Pro (3 μl/μg DNA; Biontex) following the manufacturer’s instructions. 16 h post transfection, the cells were seeded into white 384-well plates at a density of 20,000 cells/well. On the next day, the medium was removed and the cells were stimulated with 20 μl of peptide solution (or forskolin as positive control) in serum-free DMEM for 4 h. For measuring Gi/o activity, the peptide solutions additionally contained 1 μM forskolin to elevate cellular cAMP levels. After incubation, the luciferase substrate OneGlo in lysis buffer (Promega) was added and the luminescence was measured in a microplate reader Tecan Spark (Tecan). Data were analyzed with GraphPad Prism 5.03 and are shown as fold of basal or fold of forskolin in case of Gαi/o activity.
(§4) For in vitro activation, data is presented as mean ± SEM of at least three independent experiments conducted in technical triplicate. […] For the C. elegans NPRs, we considered the strongest response elicited by any of the peptides downstream of a particular receptor as the receptor’s maximal signal. This may or may not be the biological maximum that can be reached by the ‘true’ endogenous agonist. For the human receptors, the response to the established endogenous agonist reflected the maximal signal.

[3] = target: T3, NPR-3 (Caenorhabditis elegans, UniProt P90745); assay: IP accumulation assay, co-transfected Gα16, NPR-3; conditions: 1 h, HBSS + 20 mM LiCl, HEK293 receptor + Gα16, HTRF IP-One, mean of >=3 independent experiments
T3 construct: expressed in transfected cells; host or cells: HEK293
T3 sequence (P90745 1-376): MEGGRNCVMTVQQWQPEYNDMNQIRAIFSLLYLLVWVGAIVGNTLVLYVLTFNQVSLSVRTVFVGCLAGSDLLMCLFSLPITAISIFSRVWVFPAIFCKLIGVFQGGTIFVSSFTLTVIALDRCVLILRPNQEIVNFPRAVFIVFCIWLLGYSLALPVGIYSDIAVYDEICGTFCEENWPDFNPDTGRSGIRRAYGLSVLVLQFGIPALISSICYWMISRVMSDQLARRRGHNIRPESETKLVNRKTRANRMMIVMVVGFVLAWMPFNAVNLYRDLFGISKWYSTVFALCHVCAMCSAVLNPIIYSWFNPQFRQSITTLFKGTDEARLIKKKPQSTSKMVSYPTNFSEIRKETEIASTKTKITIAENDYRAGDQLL
Experimental: as §1, §2

[4] = target: T2, NPR-1; assay: IP accumulation assay, co-transfected Gα16, NPR-1; parameters: expressed in transfected cells; host or cells: HEK293; conditions: 1 h, HBSS + 20 mM LiCl, HEK293 receptor + Gα16, HTRF IP-One, mean of >=3 independent experiments
Experimental: as §1, §2

[5] = target: T1, NPR-11; assay: cAMP reporter gene assay, Gs (no forskolin), NPR-11; conditions: no forskolin, 4 h, transiently transfected HEK293, CRE-luciferase reporter, mean of >=3 independent experiments
Experimental: as §3, §4

[6] = 0.1 nM peptide (so in the source)

APKPKFIRF-NH2 [FLP-5-1, C. elegans FMRFamide-like peptide, C-terminally amidated, synthesized by SPPS]
IP assay endog. Gαq + mock, NPR-11 [1, 6]: 1.05 x-fold of basal | IP assay endog. Gαq + mock, NPR-11 ([1]; 10 µM peptide): 1.09 x-fold of basal | cAMP assay Gs, NPR-1 ([2]; 0.1 µM peptide): 1.12 x-fold of basal | cAMP assay Gs, NPR-1 ([2]; 10 µM peptide): 1.05 x-fold of basal | IP assay endog. Gαq + Gα16, NPR-3 [3, 6]: 0.93 x-fold of basal | IP assay endog. Gαq + Gα16, NPR-3 ([3]; 10 µM peptide): 0.81 x-fold of basal | IP assay endog. Gαq + Gα16, NPR-1 [4, 6]: 0.90 x-fold of basal | IP assay endog. Gαq + Gα16, NPR-1 ([4]; 10 µM peptide): 0.81 x-fold of basal | cAMP assay Gs, NPR-11 ([5]; 0.1 µM peptide): 0.70 x-fold of basal | cAMP assay Gs, NPR-11 ([5]; 10 µM peptide): 0.69 x-fold of basal
